Data on one compound can be found in patent US20210260108A1, “ZINC-CONTAINING, WATER-SOLUBLE POLYGLUTAMIC ACID COMPLEX COMPOSITION” (Alextand Co., Ltd, priority 2018, published 2021).

For this data set the following is noted: 1 g added to 25 mL of water at room temperature (about 25° C., 1 atmosphere).

As for `[O]=[Zn]` [zinc oxide], the Water solubility result is “almost insoluble”.
